Measurements from US20250129021A1, “SMALL MOLECULE PROTEIN SYNTHESIS MODULATORS” (Interdict Bio, Inc., priority 2023, published 2025).

Key:
Type in all cases: biochemical
MCL-1 = test: In vitro transcription-translation (IVTT) assay, MCL-1 reporter; settings: HeLa S3 lysate, sfGFP/mCherry ratio, 2 hrs at 30° C.
Procedure, shortened: (§1)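 Reporter: mCherry, P2A, then 3×FLAG-target peptide-sfGFP fusion, IRES-initiated; HeLa S3 lysate IVTT; cpd dilutions 30 μM−0.1 μM half-log in 100% DMSO (dilution-plate conc); DNA added last; 2 h, 30° C; PBS quench.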

BCL-2 = test: In vitro transcription-translation (IVTT) assay, BCL-2 reporter; settings: HeLa S3 lysate, sfGFP/mCherry ratio, 2 hrs at 30° C.
Excerpt: All reporter constructs have been cloned into the pT7CFE1-CHis plasmid (ThermoFisher #88860) using Gibson assembly procedures (NEB #E2611L). The parental pT7CFE1-CHis plasmid contains an EMCV IRES at the 5′UTR for translation initiation, a multiple-cloning site (MCS) for gene insertion, an optional C-terminal His-epitope tag, and polyA sequence in the 3′UTR to regulate mRNA stability. All reporters are designed to be inserted at the MCS to include a red fluorescent protein (mCherry), P2A self-cleaving peptide which releases the preceding mCherry protein product, and a fusion open reading frame containing a 3×FLAG epitope, a peptide sequence of interest (TEST), and green fluorescent protein (sfGFP).
Construct Plasmid Preparation: All plasmids are isolated from MACH1 cells (ThermoFisher) grown overnight in ampicillin-containing luria broth, and purified using ZymoPure Express Plasmid Midiprep Kit (Zymo Research). Constructs are sequenced verified and diluted to a working concentration of 110 ng/μL.
HeLa S3 Lysate Preparation: HeLa S3 cell pellets are acquired from Ipracell/Ipratech (Belgium) and shipped as 4 mL frozen cell pellets on dry ice for storage at −80° C. until use. The procedure for lysate preparation is as follows. Prepare 1× Lysis Buffer, cold and stored on ice:
Each preparation takes 8 cell pellets (4 ml packed volume each, approximately 1.0×10^9 cells per pellet). Thaw cell pellets from −80° C. on ice for 90 mins. Lay pellets horizontally on top of the ice and rotate every 30 mins to ensure even thawing. Once thawed, add 4 mL of cold lysis buffer to each pellet, and using a serological pipet, gently pipet up and down to break up clumps. Incubate resuspended cells in ice for an additional 30 mins (plunged into ice). During 30 min incubation, rinse and RNase-zap (Ambion) glass dounces (use loose pestle “A”), gently dry and place on ice until needed. Prepare RNase-free Eppendorf tubes for spinning and for batch storage. Add batch labels to 1.5-1.7 mL RNase-free microcentrifuge tubes (labeling scheme below). Each batch will have an extra 1.5-1.7 mL RNase-free microcentrifuge tube for 40 μL of lysate, label the top of this tube (labeling scheme below). After 30 min incubation, transfer all 8 mL of cell pellet to dounce. Cell lysis is complete after douncing 100 times. Aliquot cell lysis into 1.5-1.7 mL temporary-microcentrifuge tubes. Place tubes in centrifuge with “fins” out, and spin at 1,200×g for 5 mins. After the first spin use a 1 mL pipet to resuspend each tube and repeat spin. This acts as an additional lysis step, is more vigorous and increases lysate yield. During second spin get liquid N2 and a fresh conical tube on ice. After spin is complete, transfer supernatant (lysate) from microcentrifuge tubes into the 50 mL conical tube and keep on ice. Repeat steps 10-14 for all other cell pellets until completed. Once all cell lysate has been transferred to the 50 mL conical tube pipet to mix so the solution is homogenous. Transfer 1 mL of lysate into batch-labeled microcentrifuge tubes and flash freeze in liquid nitrogen. Be sure to pipet up and down to mix throughout transfer step. Place all tubes in the […] for long-term storage.
In vitro transcription-translation assay setup: Each assay includes a master mix containing lysate and shared components, a 96-well plate containing compound titrations for testing, a 96-well DNA plate with reporter constructs to be tested, 96-well skirted PCR plates, and 96-well flat-bottom, black, fluorescent assay plates. […]

CCND1 = test: In vitro transcription-translation (IVTT) assay, CCND1 reporter; settings: HeLa S3 lysate, sfGFP/mCherry ratio
Procedure, shortened: as §1

MYC = test: In vitro transcription-translation (IVTT) assay, MYC reporter; settings: HeLa S3 lysate, 2 hrs at 30° C.
Procedure, shortened: as §1

NFKB1 = test: In vitro transcription-translation (IVTT) assay, NFKB1 reporter; settings: HeLa S3 lysate, sfGFP/mCherry ratio
Procedure: In vitro transcription-translation assay setup: Each assay includes a master mix containing lysate and shared components, a 96-well plate containing compound titrations for testing, a 96-well DNA plate with reporter constructs to be tested, 96-well skirted PCR plates, and 96-well flat-bottom, black, fluorescent assay plates. Reaction materials setup: (A) Master mix—15 mL conical tube (3 mL of HeLa S3 Lysate described above; 0.6 mL of ThermoFisher Accessory Proteins (#88882); 1.2 ml of ThermoFisher Reaction Mix (#88882); 0.54 mL of nuclease-free Water); (B) 96-Well Master Mix+Compound Plate (Half-log dilutions (30 μM−0.1 μM) of 4 compounds of interest are prepared in 100% DMSO); 96-Well DNA Plate (Five DNA constructs are plated into single columns within the plate. Row 1 of the column contains nuclease free H2O, all other wells contain 110 ng/μL plasmid DNA). Reactions are started by mixing 155 μL of master mix and 3.5 μL of compound serial dilutions, then 9.1 μL of master mix+compound mixture is aliquoted across 5 96-well plates. Reactions begin with final addition of 2 μL of DNA for a 11.1 μL reaction volume in each well. The entire plate is sealed, and incubated for 2 hrs at 30° C. After 2 hrs, quench the assay using 45 μL of PBS, and transfer 50 μL to a flat-bottom black microplate Quantify the sfGFP and mCherry signals from each well on each plate, taking 3 reads of each plate, and perform data analysis below.
In vitro transcription-translation assay data analysis: Each plate is read three times in channels for both sfGFP and mCherry signals. The average signal across these 3 reads is then calculated for further analysis. Control wells containing no DNA reporter are subtracted from reporter wells in the same column to remove auto-fluorescence of the lysate. Then, the ratio of sfGFP/mCherry is calculated per well, and these ratios are averaged across the triplicate experiments on the same plate. Finally, the ratio of each titration concentration is normalized to the no drug control to create the normalized stalling metric. The error on this measurement is determined by propagating error through the averaging and normalization steps. Values are plotted and fit for IC50 determination for each test sequence and titration of compound.

[1] = IVTT assay, MYC reporter, normalized sfGFP/mCherry ratio, half-log dilutions 30 μM-0.1 μM

| Compound | IC50 (MCL-1) | IC50 (BCL-2) | IC50 (CCND1; 2 hrs at 30° C.) | IC50 (MYC; sfGFP/mCherry ratio) | IC50 (MYC; [1]) | IC50 (NFKB1) | IC50 (CCND1; IVTT assay) |
| --- | --- | --- | --- | --- | --- | --- | --- |
| COc1ccc(C[C@H]2NC[C@H](O)[C@H]2OC(=O)NCCc2n[nH]cc2C#N)cc1 [Cmpd V188126] | < 10 µM | < 10 µM | < 10 µM |  |  |  |  |
| COc1ccc(C[C@H]2NC[C@H](O)[C@H]2OC(=O)NCc2ccncc2Cl)cc1 [V188052, (2R,3S,4S)-4-hydroxy-2-[(4-methoxyphenyl)methyl]pyrrolidin-3-yl N-[(3-chloropyridin-4-yl)methyl]carbamate] | < 10 µM | 10 to 20 µM |  | < 10 µM |  |  |  |
| COc1ccc(C[C@H]2NC[C@H](O)[C@H]2OC(=O)NCc2ccc(I)cc2)cc1 [V187928, (2R,3S,4S)-4-hydroxy-2-[(4-methoxyphenyl)methyl]pyrrolidin-3-yl N-[(4-iodophenyl)methyl]carbamate] | 10 to 20 µM | > 30 µM | > 30 µM | 10 to 20 µM |  |  |  |
| COc1ccc(C[C@H]2NC[C@H](O)[C@H]2OC(=O)NCc2cccc(-c3ccccc3)c2)cc1 [V187982, (2R,3S,4S)-4-hydroxy-2-[(4-methoxyphenyl)methyl]pyrrolidin-3-yl N-{[1,1′-biphenyl]-3-ylmethyl}carbamate] | > 30 µM | > 30 µM | > 30 µM | > 30 µM |  |  |  |
| COc1ccc(C[C@H]2NC[C@H](O)[C@H]2OC(=O)NCc2nc(Cl)c(Cl)[nH]2)cc1 [V187824, (2R,3S,4S)-4-hydroxy-2-[(4-methoxyphenyl)methyl]pyrrolidin-3-yl N-[(4,5-dichloro-1H-imidazol-2-yl)methyl]carbamate] | > 30 µM | > 30 µM | > 30 µM | > 30 µM |  |  |  |
| COc1ccc(C[C@H]2NC[C@H](O)[C@H]2OC(=O)NC[C@@H]2CCCNC2)cc1 [V187929, (2R,3S,4S)-4-hydroxy-2-[(4-methoxyphenyl)methyl]pyrrolidin-3-yl N-[(3R)-piperidin-3-ylmethyl]carbamate] | > 30 µM | > 30 µM |  | > 30 µM |  |  |  |
| COc1ccc(C[C@H]2NC[C@H](O)[C@H]2OC(=O)NCc2n[nH]nc2COCc2ccccc2)cc1 [Cmpd V187805] | > 30 µM | > 30 µM | > 30 µM |  |  |  |  |
| COc1ccc(C[C@H]2NC[C@H](O)[C@H]2OC(=O)NCCNC(=O)[C@@H]2CCCN2)cc1 [V188015, (2R,3S,4S)-4-hydroxy-2-[(4-methoxyphenyl)methyl]pyrrolidin-3-yl N-{2-[(2S)-pyrrolidin-2-ylformamido]ethyl}carbamate] | 10 to 20 µM | > 30 µM | 10 to 20 µM |  |  |  |  |
| O=C(NCC[C@@H]1C[C@H](C(F)(F)F)CN1)O[C@@H]1[C@@H](O)CN[C@@H]1Cc1ccc(-c2cnco2)cc1 [V192912, (2R,3S,4S)-4-hydroxy-2-{[4-(1,3-oxazol-5-yl)phenyl]methyl}pyrrolidin-3-yl N-{2-[(2S,4S)-4-(trifluoromethyl)pyrrolidin-2-yl]ethyl}carbamate] |  |  |  |  | < 10 µM | < 10 µM | < 10 µM |
| O=C(NCC[C@@H]1CCCN1)O[C@@H]1[C@@H](O)CN[C@@H]1Cc1ccc(-c2ccns2)cc1 [V192331, (2R,3S,4S)-4-hydroxy-2-{[4-(1,2-thiazol-5-yl)phenyl]methyl}pyrrolidin-3-yl N-{2-[(2S)-pyrrolidin-2-yl]ethyl}carbamate] |  |  |  |  | < 10 µM | < 10 µM | < 10 µM |
| COc1ccc(C[C@H]2NC[C@H](O)[C@H]2OC(=O)NCCNC(=O)C2(N)CC2)cc1 [V187919, (2R,3S,4S)-4-hydroxy-2-[(4-methoxyphenyl)methyl]pyrrolidin-3-yl N-{2-[(1-aminocyclopropyl)formamido]ethyl}carbamate] |  | > 30 µM | > 30 µM | 20 to 30 µM |  |  |  |
| O=C(NCC[C@@H]1CCCN1)O[C@@H]1[C@@H](O)CN[C@@H]1Cc1ccc(-c2cnco2)c(F)c1 [V192903, (2R,3S,4S)-2-{[3-fluoro-4-(1,3-oxazol-5-yl)phenyl]methyl}-4-hydroxypyrrolidin-3-yl N-{2-[(2S)-pyrrolidin-2-yl]ethyl}carbamate] |  |  |  |  | < 10 µM | < 10 µM | 10 to 20 µM |
| O=C(NCc1cccc(F)c1)O[C@@H]1[C@@H](O)CN[C@@H]1Cc1ccc(Oc2cncs2)cc1 [V192395, (2R,3S,4S)-4-hydroxy-2-{[4-(1,3-thiazol-5-yloxy)phenyl]methyl}pyrrolidin-3-yl N-[(3-fluorophenyl)methyl]carbamate] |  |  |  |  | < 10 µM | < 10 µM | < 10 µM |
| CNC1(c2ccc(CNC(=O)O[C@@H]3[C@@H](O)CN[C@@H]3Cc3ccc(-c4cnco4)cc3)cc2)CC1 [V192288, (2R,3S,4S)-4-hydroxy-2-{[4-(1,3-oxazol-5-yl)phenyl]methyl}pyrrolidin-3-yl N-({4-[1-(methylamino)cyclopropyl]phenyl}methyl)carbamate] |  |  |  |  | < 10 µM | < 10 µM | < 10 µM |
| O=C(NCc1cccc(F)c1)O[C@@H]1[C@@H](O)CN[C@@H]1Cc1ccc(Oc2cccnc2)cc1 [V192398, (2R,3S,4S)-4-hydroxy-2-{[4-(pyridin-3-yloxy)phenyl]methyl}pyrrolidin-3-yl N-[(3-fluorophenyl)methyl]carbamate] |  |  |  |  | < 10 µM | < 10 µM | < 10 µM |
| O=C(NCC[C@@H]1CCCN1)O[C@@H]1[C@@H](O)CN[C@@H]1Cc1ccc(C(F)F)cc1 [V192893, (2R,3S,4S)-2-(4-(difluoromethyl)benzyl)-4-hydroxypyrrolidin-3-yl (2-((S)-pyrrolidin-2-yl)ethyl)carbamate] |  |  |  |  | < 10 µM | < 10 µM | < 10 µM |
| (2R,3S,4S)-2-{[2-fluoro-4-(1,3-oxazol-5-yl)phenyl]methyl}-4-hydroxypyrrolidin-3-ylN-[(3-fluorophenyl)methyl]carbamate [V192861] |  |  |  |  | < 10 µM | < 10 µM | < 10 µM |
| COc1ccc(C[C@H]2NC[C@H](O)[C@H]2OC(=O)NCCc2ccc(-c3ccccc3)cc2)cc1 [V187979] | > 30 µM | > 30 µM |  | > 30 µM |  |  |  |
